Reference: patent publication US20260001853A1, “ASCORBIC ACID DERIVATIVE OR SALT THEREOF, AND COSMETIC THEREOF” (SEIWA KASEI COMPANY, LIMITED, priority 2022, published 2026)

Key:
B16 melanoma 4A5 cells = assay: Melanin production inhibitory effect (theophylline-induced melanin production); assay type: cell-based, mouse; conditions: melanin production inhibition rate, sample at a concentration of 10 mM or less, 3 days culture, theophylline 1 mmol/L, N=4
How it was run: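 Mouse B16 4A5 cells cultured 24 h in D-MEM/10% FBS, then 3 days with 1 mmol/L theophylline (final) plus sample at 10 mM or less. Melanin measured by alkali solubilization (1 mol/L NaOH, 60° C, 30 min, A405) against synthetic melanin standard, normalized to BCA protein. Inhibition rate relative to normal and control groups, scored as graded ranges; N=4.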

[1] = system: Normal human dermal fibroblasts; assay: Collagen production promoting effect (ELISA of supernatant); assay type: cell-based; conditions: amount of collagen produced, % with control group taken as 100%; sample at 10 mmol/L or less, 48 hours, N=3
How it was run: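 Fibroblasts in D-MEM with 5% FBS were pre-incubated 24 h, then exposed to samples for 48 h. Free collagen in supernatant quantified by ELISA (N=3), expressed as % of control (control = 100%) at ≤10 mmol/L, scored ± (<100%), + (100-120%), ++ (120%).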

[2] = system: Normal human epidermal keratinocytes; assay: Antioxidant test (ROS production after H2O2 treatment, DCFHDA probe); assay type: cell-based; conditions: sample at a concentration of 10 mM or less, 24 h culture, 0.2 mM H2O2 for 2 hours, ROS per unit protein, N=4
Method: Normal human epidermal keratinocytes were seeded in a 96-well plate using KG2 medium to a cell density of 2.0×10^4 cells/well. After 24 hours of pre-incubation, samples adjusted to a predetermined concentration with KG2 medium were added to each well. After 24 hours of culture and removal of the medium, the wells were washed with HBSS(−) and the ROS-reactive fluorescent probe DCFHDA was allowed to incorporate for 30 minutes. The wells were washed again with HBSS(—), treated with 0.2 mM H2O2, and cultured for 2 hours. The fluorescence intensity was measured, and the amount of ROS produced per unit protein was calculated by dividing the fluorescence intensity by the amount of protein quantified by the BCA method.
The antioxidant effect when the sample was measured at a concentration of 10 mM or less was expressed as follows. The measurement was performed with N=4. • <20%: ± • 20-40%: + • 40-70%: ++ • 70-100%: +++

[3] = system: Normal human dermal fibroblasts (NHDF); assay: Hyaluronic acid production promoting effect (ELISA of supernatant); assay type: cell-based; conditions: amount of hyaluronic acid produced, % with control group taken as 100%; sample at 10 mmol/L or less, 48 hours, N=3
How it was run: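 NHDF pre-incubated 24 h, then exposed to samples at 10 mmol/L or less in serum-free D-MEM for 48 h. Supernatant hyaluronic acid quantified by ELISA, N=3, expressed as % of control (100%) and scored ± (<100%), + (100-120%), ++ (120-150%), +++ (150%).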

[4] = Stability test (residual rate by HPLC, odor, coloring); assay type: physicochemical; conditions: 1% aqueous solution; for Coloring / Odor: total score of 10 panelists
How it was run: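 A 1% aqueous solution of each test sample was brought to pH 6 with dilute potassium hydroxide aqueous solution, sealed in a 50 mL screw tube, and stored. Residual rate was calculated from HPLC peak area on a Shimadzu liquid chromatograph. Ten panelists scored odor and coloring on a 1–3 scale each, and the summed scores were classified.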

[5] = pH 6, stored at 50° C., four weeks later
[6] = pH 6, stored at 50° C., two weeks later

Residual rate ([4]; pH 6, 50° C., initial) | Residual rate [4, 5] | Residual rate [4, 6] | SMILES | Melanin production inhibition effect (B16 melanoma 4A5 cells) | Collagen production promoting effect [1] | Antioxidant Effects [2] | Hyaluronic acid production promoting effect [3] | Coloring ([4]; pH 6, 50° C., initial) | Odor ([4]; pH 6, 50° C., initial) | Coloring [4, 5] | Odor [4, 5] | Coloring [4, 6] | Odor [4, 6]
⊚ (⊚: 90% or more) | Δ (Δ: 60% or more, less than 80%) | ◯ (◯: 80% or more, less than 90%) | O=C1O[C@H]([C@@H](O)CO)C(OCC(O)CO)=C1O (some centres unmarked) [3-O-glyceryl ascorbic acid, reference compound] | + (20-40%: +) | + (100-120%: +) | + (20-40%: +) | + (100-120%: +) | ◯ (◯: Total score of 10 panelists is 25 or more) | ◯ (◯: Total score of 10 panelists is 20-24) | Δ (Δ: Total score of 10 panelists is 16-24) | Δ (Δ: Total score of 10 panelists is 16-19) | Δ (Δ: Total score of 10 panelists is 16-24) | Δ (Δ: Total score of 10 panelists is 16-19)
⊚ (⊚: 90% or more) | ⊚ (⊚: 90% or more) | ⊚ (⊚: 90% or more) | CC(C)(O)COC1=C(O)C(=O)O[C@@H]1[C@@H](O)CO [Synthesis Example 2, 3-O-(2-hydroxyisobutyl) ascorbic acid] | + (20-40%: +) | + (100-120%: +) | ++ (40-70%: ++) | + (100-120%: +) | ◯ (◯: Total score of 10 panelists is 25 or more) | ◯ (◯: Total score of 10 panelists is 20-24) | ◯ (◯: Total score of 10 panelists is 25 or more) | ◯ (◯: Total score of 10 panelists is 20-24) | ◯ (◯: Total score of 10 panelists is 25 or more) | ◯ (◯: Total score of 10 panelists is 20-24)
⊚ (⊚: 90% or more) | ⊚ (⊚: 90% or more) | ⊚ (⊚: 90% or more) | CC(C)(O)COC1=C(O)[C@@H]([C@@H](O)CO)OC1=O [Synthesis Example 1, 2-O-(2-hydroxyisobutyl) ascorbic acid] | ++ (40-60%: ++) | ++ (120%: ++) | ++ (40-70%: ++) | + (100-120%: +) | ◯ (◯: Total score of 10 panelists is 25 or more) | ◯ (◯: Total score of 10 panelists is 20-24) | ◯ (◯: Total score of 10 panelists is 25 or more) | ◯ (◯: Total score of 10 panelists is 20-24) | ◯ (◯: Total score of 10 panelists is 25 or more) | ◯ (◯: Total score of 10 panelists is 20-24)
– | – | – | O=C1O[C@H]([C@@H](O)CO)C(O)=C1OCC(O)CO (some centres unmarked) [2-O-glyceryl ascorbic acid, reference compound] | + (20-40%: +) | + (100-120%: +) | ± (<20%: ±) | + (100-120%: +) | – | – | – | – | – | –
– | – | – | CCOC1=C(OCC(C)(C)O)C(=O)O[C@@H]1[C@@H](O)CO [Synthesis Example 3, 2-O-(2-hydroxyisobutyl)-3-O-ethylascorbic acid] | +++ (60-100%: +++) | ++ (120%: ++) | ++ (40-70%: ++) | – | – | – | – | – | – | –
– | – | – | CCOC1=C(OCC(C)(C)O)[C@@H]([C@@H](O)CO)OC1=O [Synthesis Example 18, 2-O-ethyl-3-O-(2-hydroxyisobutyl) ascorbic acid] | +++ (60-100%: +++) | ++ (120%: ++) | ++ (40-70%: ++) | ++ (120-150%: ++) | – | – | – | – | – | –
⊚ (⊚: 90% or more) | ⊚ (⊚: 90% or more) | ⊚ (⊚: 90% or more) | CCCCCCCCCCCCCCC(O)COC1=C(OCC(C)(C)O)[C@@H]([C@@H](O)CO)OC1=O (some centres unmarked) [Synthesis Example 42, 3-O-(2-hydroxyisobutyl)-2-O-(2-hydroxyhexadecyl) ascorbic acid] | ++ (40-60%: ++) | + (100-120%: +) | – | +++ (150%: +++) | ◯ (◯: Total score of 10 panelists is 25 or more) | ◯ (◯: Total score of 10 panelists is 20-24) | ◯ (◯: Total score of 10 panelists is 25 or more) | ◯ (◯: Total score of 10 panelists is 20-24) | ◯ (◯: Total score of 10 panelists is 25 or more) | ◯ (◯: Total score of 10 panelists is 20-24)
⊚ (⊚: 90% or more) | ⊚ (⊚: 90% or more) | ⊚ (⊚: 90% or more) | CCC(O)COC1=C(OCC(C)(C)O)[C@@H]([C@@H](O)CO)OC1=O (some centres unmarked) [Synthesis Example 40, 3-O-(2-hydroxyisobutyl)-2-O-(2-hydroxybutyl) ascorbic acid] | ++ (40-60%: ++) | ++ (120%: ++) | – | ++ (120-150%: ++) | ◯ (◯: Total score of 10 panelists is 25 or more) | ◯ (◯: Total score of 10 panelists is 20-24) | ◯ (◯: Total score of 10 panelists is 25 or more) | ◯ (◯: Total score of 10 panelists is 20-24) | ◯ (◯: Total score of 10 panelists is 25 or more) | ◯ (◯: Total score of 10 panelists is 20-24)
